Measurements published in patent US20240376114A1, “NUCLEAR TRANSPORT MODULATORS AND USES THEREOF” (Karyopharm Therapeutics Inc., priority 2011, published 2024).
Counter-ions that a name gives are not always drawn. Like-named read-outs stand apart in the source and are kept apart here.

How the values were obtained:
[1] = CellTiter 96 AQueous One Solution (MTS) cell proliferation assay; type: cell-based; conditions: human, MM.1S multiple myeloma cells; MM.1S cells, 72 h treatment; read-out: Cytotoxicity [EC50]
Excerpt: (§1) The CellTiter 96® AQueous One Solution cell proliferation assay (Promega) was used on MM.1S multiple myeloma cell line to study the cytotoxic and cytostatic properties of the compounds. The assay is based on the cleavage of the tetrazolium salt, MTS, in the presence of an electron-coupling reagent PES (phenazine ethosulfate). The MTS tetrazolium compound is bioreduced by cells into a colored formazan product that is soluble in tissue culture medium. This conversion is presumably accomplished by NADPH or NADH produced by dehydrogenase enzymes in metabolically active cells. Assays are performed by adding a small amount of the CellTiter 96® AQueous One solution reagent directly to culture wells, incubating for 1-4 hours and then recording the absorbance at 490 nm with a 96-well plate reader.
(§2) The cells were seeded at 5×10^3 to 1.5×10^4 cells (depending on cell type) in each well of a 96-well plate in 100 μL of fresh culture medium and adherent cells were allowed to attach overnight. The stock solutions of the compounds were diluted in cell culture medium to obtain eight concentrations of each drug, ranging from 1 nM to 30 μM and DMSO at less than 1% v/v was used as a negative control. The resulting drug solutions were transferred onto the cells. After 72 h of treatment, 20 μl of CellTiter 96® AQueous reagent was added into each well of the 96-well assay plates and the plate was incubated at 37° C. for 1-4 hours in a humidified, 5% CO2 atmosphere. Then the absorbance of each well was recorded at 490 nm using a 96-well plate reader. In most cases, the assay was performed in triplicate and the results were presented as half maximal inhibitory concentration (IC50). Optical density versus compound concentration was plotted and analyzed using non-linear regression equations (IDBS XLfit) and the IC50 for each compound was calculated.

[2] = Pharmacokinetic (PK) assay, plasma AUC; type: in vivo; conditions: 10 mg/kg, mouse, PO, 10 mpk, read-out: AUCInf hr * ng/mL (mouse, PO, 10 mpk)
Description: Pharmacokinetics (PK) play an increasing role in drug discovery and development. Pharmacokinetics is the quantitative study of the time course of drug absorption, distribution, metabolism and/or excretion. When a drug is administered, it distributes rapidly from its administration site into the systemic blood circulation. One measure of the extent of a therapeutic agent's distribution is the area under the plasma concentration-time curve (AUC), calculated to the last measured concentration (AUCt) and extrapolated to infinity (AUCinf). AUC is thus a useful metric to quantitate drug exposure. AUC. Blood was collected from mice (N=3) to contribute to the total of 10 time points (pre-dose, 5 min, 15 min, 30 min, 1 hour, 2 hours, 4 hours, 8 hours, 12 hours and 24 hours post dose). Mice were bled on a rotating basis, each mouse contributing 3 time points to the blood collection. At the designated time points, animals were anaesthetized under isoflurane, and approximately 110 μL of blood per time point was collected via retro-orbital puncture into pre-cooled K2EDTA (anti-coagulant) tubes. Blood samples were put on wet ice and centrifuged (2000 g, 5 min at 4° C.) to obtain plasma within 30 minutes of sample collection. All samples were stored frozen at approximately −80° C. until analysis. Prior to analysis, samples were mixed with internal standard (dexamethasone) in acetonitrile, vortexed, centrifuged, and supernatant was injected for analysis. Concentration of compounds in plasma was determined using LC-MS-MS instrumentation (API 4000, Triple Quadruple with electrospray ionization; Acuity Ultra Performance Liquid Chromatography column C18, with MeOH and formic acid as organic solvents). AUC values were calculated using WinNonlin Professional 6.2 software package, non-compartmental pharmacokinetic model NCA200.

[3] = Brain to plasma (B:P) ratio determination; type: in vivo; conditions: brain and plasma; mouse, PO at 10 mg/kg, 2 hours post-dose
Excerpt: The brain to plasma (B:P) ratio is one method of quantifying the relative distribution of a therapeutic agent in brain tissue to that in circulation and, as such, provides one indication of the brain penetration of a given therapeutic agent. A high brain to plasma ratio is preferred when targeting diseases localized in the central nervous system (CNS), including the brain and the cerebrospinal fluid. However, a lower brain to plasma ratio is generally preferable for non-CNS therapeutic agents to minimize brain penetration and avoid potential side effects caused by unwanted accumulation of the therapeutic agents in the brain and CNS tissue.
Brain to Plasma (B:P) Ratio. […] Following collection, brain tissue was rinsed with cold saline, dried on filter paper, weighed and snap-frozen by placing on dry ice. All samples were stored frozen at approximately −80° C. until analysis. […] Plasma samples were treated with the identical method (except homogenization step) and the concentration of compound in each matrix was calculated based on generated standard curves.

HCT-116 xenografts = test: Inhibition of HCT-116 xenografts in vivo
Description: Mice were inoculated on the hind flank with HCT-116 cell line and the HCT-116 xenografts were grown to approximately 150 mm^3, at which time treatment was initiated. Treatment groups were as follows:
50 mg/kg 5-FU IP, days 1-3;
25 mg/kg Compound 1 compound QD×5 SC (low dose);
75 mg/kg Compound 1 compound QD×5 SC (high dose).

CRM1 [4] = biological target: T1, CRM1 (Homo sapiens (Human), UniProt O14980); test: Immunofluorescence of p21 and p53 localization in HCT-116 cells; type: cell-based; conditions: 10 μM, 24 hours
Description: HCT-116 cells were incubated with 10 μM Compound 1 for 24 hours, at which time the cells were fixed and stained with antibodies to p21 or p53, or the DNA stain, DAPI.

HCT-116 cells [5] = test: Western blot of p53, p21, PARP in cytoplasmic and nuclear fractions of HCT-116 cells; type: cell-based; conditions: 10 μM
Description: HCT-116 cells were incubated with 10 μM Compound 1 for 2, 4, 6, 16, or 24 hours (indicated in FIGS. 2A and 2B as “2+,” 4+,” etc.), or with 10 μM Compound 1 for 22 hours and an additional 1 μM Compound 1 for another 2 hours (indicated in FIGS. 2A and 2B as “22+2+”). At the end of the incubation period, total protein extracts were prepared. Cytoplasmic and nuclear proteins were separated, immunoblotted and reacted with antibodies to p53, p21, full-length (FL) PARP, cleaved PARP and lamin B.

HCT-116 cells [6] = test: Immunofluorescence of pRb localization in HCT-116 cells; type: cell-based; conditions: 10 μM, 24 hours
Description: HCT-116 cells were incubated with 10 μM Compound 1 for 24 hours, at which time the cells were fixed and stained with antibodies to pRb or DAPI.

HCT-116 cells [7] = test: Western blot of pRb and phosphorylated pRb in HCT-116 cells; type: cell-based; conditions: 10 μM, more than 6 hours
Description: HCT-116 cells were incubated with 10 μM Compound 1 for 2, 4, 6, 16, or 24 hours (indicated in FIGS. 3A and 3B as “2+,” 4+,” etc.), or with 10 μM Compound 1 for 22 hours and an additional 1 μM Compound 1 for another 2 hours (indicated in FIGS. 3A and 3B as “22+2+”). At the end of the incubation period, total protein extracts were prepared. Cytoplasmic and nuclear proteins were separated, immunoblotted and reacted with antibodies to phosphorylated pRb (pRb^phos), pRb, actin and lamin B.

HCT-116 cells [8] = test: Immunofluorescence of APC and IκB localization in HCT-116 cells; type: cell-based; conditions: 10 μM, 24 hours
Description: HCT-116 cells were incubated with 10 μM Compound 1 for 24 hours, at which time the cells were fixed and stained with antibodies to APC or IκB, or DAPI.

[9] = test system: splenocytes and circulating CD8 cells; test: FACS of immune cells at day 26 of the EAE model; type: in vivo, mouse; conditions: day 26, high dose (75 mg/kg)
Excerpt: On day 26, a subset of mice was sacrificed and immune cells were subjected to fluorescence-activated cell sorting (FACS) using standard methods.

[10] = test system: EAE model of multiple sclerosis; conditions: 25 mg/kg and 75 mg/kg, oral gavage, 3 days per week
[11] = test system: MM.1S multiple myeloma cell line; test: CellTiter 96 AQueous One Solution (MTS) cell proliferation assay; type: cell-based
Excerpt: as §1, §2

CRM1 [12] = biological target: T1, CRM1; test: RevGFP assay: inhibition of CRM1-mediated nuclear export; type: cell-based; conditions: U2OS-RevGFP cells, about 1 hr incubation; read-out: Rev Export [IC50]
Description: The ability of exemplary compounds of the invention to inhibit CRM1-mediated nuclear export was assessed in a RevGFP assay. Rev is a protein from human immunodeficiency virus type 1 (HIV-1) and contains a nuclear export signal (NES) in its C-terminal domain and a nuclear localization signal (NLS) in its N-terminal domain. Nuclear export of Rev protein is dependent on the classical NES/CRM1 pathway (Neville et al. 1997).
In this assay, U2OS-RevGFP cells were seeded onto clear-bottomed, black, 384-well plates the day before the experiment. Compounds were serially diluted 1:2 in DMEM, starting from 40 μM in a separate, 384-well plate, and then transferred onto the cells. The cells were incubated with compound for about 1 hr before fixation with 3.7% formaldehyde and nuclei staining with Hoechst 33258. The amount of GFP in cell nuclei was measured and the IC50 of each compound was determined (Kau et al. 2003). […]

[13] = MM.1S cells, 72 h treatment, read-out: Cytotoxicity [EC50]

T1 sequence (O14980 whole entry): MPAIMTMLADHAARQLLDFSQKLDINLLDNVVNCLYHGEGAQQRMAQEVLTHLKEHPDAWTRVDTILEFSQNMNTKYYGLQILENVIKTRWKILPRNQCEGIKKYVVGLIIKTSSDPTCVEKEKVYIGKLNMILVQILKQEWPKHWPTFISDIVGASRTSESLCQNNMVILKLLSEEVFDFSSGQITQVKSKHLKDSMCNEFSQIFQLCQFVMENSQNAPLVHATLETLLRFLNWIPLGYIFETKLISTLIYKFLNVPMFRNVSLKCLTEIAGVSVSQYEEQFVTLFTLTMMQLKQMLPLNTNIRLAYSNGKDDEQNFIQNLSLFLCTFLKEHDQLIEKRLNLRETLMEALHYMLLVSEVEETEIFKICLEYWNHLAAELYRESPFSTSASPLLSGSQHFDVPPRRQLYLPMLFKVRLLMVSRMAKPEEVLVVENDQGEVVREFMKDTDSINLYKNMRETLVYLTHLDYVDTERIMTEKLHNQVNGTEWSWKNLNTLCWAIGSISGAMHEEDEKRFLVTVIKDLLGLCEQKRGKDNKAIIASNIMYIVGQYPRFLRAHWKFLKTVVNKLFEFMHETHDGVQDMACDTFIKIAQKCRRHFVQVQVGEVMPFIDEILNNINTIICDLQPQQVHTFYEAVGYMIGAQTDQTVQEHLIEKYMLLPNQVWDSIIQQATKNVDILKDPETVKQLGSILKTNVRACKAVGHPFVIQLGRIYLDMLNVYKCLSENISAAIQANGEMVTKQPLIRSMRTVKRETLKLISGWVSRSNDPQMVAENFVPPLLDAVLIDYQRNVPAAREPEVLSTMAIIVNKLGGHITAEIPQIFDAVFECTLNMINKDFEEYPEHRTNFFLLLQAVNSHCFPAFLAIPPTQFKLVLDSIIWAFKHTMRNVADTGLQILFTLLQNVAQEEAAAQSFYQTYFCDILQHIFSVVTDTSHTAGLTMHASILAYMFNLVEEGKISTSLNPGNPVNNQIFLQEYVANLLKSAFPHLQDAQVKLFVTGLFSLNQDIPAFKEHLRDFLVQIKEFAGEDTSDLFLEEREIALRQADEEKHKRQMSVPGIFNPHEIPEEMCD

For `O=C(/C=C\n1cnc(-c2cc(C(F)(F)F)cc(C(F)(F)F)c2)n1)N1CC(F)(F)C1` [Compound 1, (Z)-3-(3-(3,5-bis(trifluoromethyl)phenyl)-1H-1,2,4-triazol-1-yl)-1-(3,3-difluoroazetidin-1-yl)prop-2-en-1-one], which EC50 at 72 h [1] is on record?
The EC50 at 72 h was < 1 µM.

And the AUC(0-inf) [2]?
The AUC(0-inf) was 12300 ng·h/mL.

What about the Kp at 2 h [3] of the same compound?
Its Kp at 2 h is 5.

And the “Tumor growth (tumor volume as percentage of initial volume)” value (HCT-116 xenografts; 25 or 75 mg/kg QDx5 SC, HCT-116 xenograft mice)?
Its value is “inhibited tumor growth”.

And the “Anti-tumor effect compared to 5-FU” value (HCT-116 xenografts; vs 50 mg/kg 5-FU IP days 1-3)?
Its value is “superior anti-tumor effects compared to 5-FU”.

And the “Nuclear export function of CRM1” value (CRM1 [4])?
The value was “inhibited the nuclear export function of CRM1”.

What about the “Subcellular localization of p21 and p53” value (CRM1 [4]) of the same compound?
The value was “both p21 and p53 were concentrated in the nucleus”.

And the “Induction of p21 and p53 (Western blot)” value (HCT-116 cells [5]; 2-24 hours)?
Its value is “induces p21 and p53 in both cytoplasmic and nuclear fractions”.

And the “Induction of apoptosis (PARP decrease, cleaved PARP increase)” value (HCT-116 cells [5]; 24 hours)?
The value was “induces apoptosis in HCT-116 cells after 24 hours”.

What about the “Nuclear localization of pRb” value (HCT-116 cells [6]) of the same compound?
Its value is “induced nuclear localization of the tumor suppressor gene protein, pRb”.

And the “Phosphorylation state of pRb (Western blot)” value (HCT-116 cells [7])?
Its value is “induces dephosphorylation of pRb in both cytoplasmic and nuclear fractions”.

What about the “Nuclear localization of APC and IκB” value (HCT-116 cells [8]) of the same compound?
The value was “induced the nuclear localization of the tumor suppressor proteins, APC and IκB”.

What about the “Number of splenocytes and circulating CD8 cells (FACS)” value [9] of the same compound?
Its value is “modest decrease in the number of splenocytes and circulating CD8 cells”.

And the EAE clinical score [10]?
Its EAE clinical score is “reduced the clinical score in a statistically significant manner”.

For “(Z)-3-(3-(3,5-bis(trifluoromethyl)phenyl)-1H-1,2,4-triazole-1-yl)-N-(1-(5-methylpyrimidine-2-yl)ethyl)acrylamide [Compound 21]”, which EC50 [11, 13] is on record?
Its EC50 is 1 to 10 µM.

What does the source list for `O=C(/C=C/n1cnc(-c2cc(C(F)(F)F)cc(C(F)(F)F)c2)n1)N1CC(F)(F)C1` [Compound 4, (E)-3-(3-(3,5-bis(trifluoromethyl)phenyl)-1H-1,2,4-triazol-1-yl)-1-(3,3-difluoroazetidin-1-yl)prop-2-en-1-one]?
IC50 (CRM1 [12]): < 1 µM; EC50 at 72 h [1]: < 1 µM

With “(E)-3-(6-(3,5-bis(trifluoromethyl)phenyl)pyridin-2-yl)-1-(3,3-difluoroazetidin-1-yl)prop-2-en-1-one [Compound 15]” as the compound, how does the EC50 [11] read?
Its EC50 is > 10 µM.

For “(Z)-3-(2-(3,5-bis(trifluoromethyl)phenyl)-1H-pyrrol-1-yl)-1-(3,3-difluoroazetidin-1-yl)prop-2-en-1-one [Compound 65]”, which EC50 [11, 13] is on record?
Its EC50 is > 10 µM.

For `O=C(/C=C\n1cnc(-c2cc(C(F)(F)F)cc(C(F)(F)F)c2)n1)NNc1ccccn1` [Compound 71], which EC50 at 72 h [1] is on record?
Its EC50 at 72 h is < 1 µM.

What about the AUC(0-inf) [2] of the same compound?
The AUC(0-inf) was 10800 ng·h/mL.

What about the Kp at 2 h [3] of the same compound?
Its Kp at 2 h is 1.8.

For `O=C(/C=C\n1cnc(-c2cc(C(F)(F)F)cc(C(F)(F)F)c2)n1)NC1C2CNCC21` (stereo not drawn) [Compound 56, (Z)—N-(3-azabicyclo[3.1.0]hexan-6-yl)-3-(3-(3,5-bis(trifluoromethyl)phenyl)-1H-1,2,4-triazol-1-yl)acrylamide hydrochloride], which IC50 (CRM1 [12]) is on record?
Its IC50 is < 1 µM.

What about the EC50 at 72 h [1] of the same compound?
The EC50 at 72 h was < 1 µM.
